Legend:
[1] = test system: intraocular pressure (IOP) of ocular normotensive rabbits; assay: IOP lowering effect in ocular normotensive rabbits (Example 8; Example 9 Phase 1); format: in vivo, New Zealand White Rabbits (Oryctolagus cuniculus); details: for OD IOP Mean: 50 μL/eye once, treated right eye, Day 1
From the text: This example illustrates the procedures and results of the intraocular pressure (IOP) lowering effect of compound 18 as compared to Latanoprostene bunod and latanoprost at different concentrations in ocular normotensive rabbits.
Forty (40) male New Zealand white rabbits were divided into 4 groups with 10 animals per group. Animals were then randomly assigned to groups based on body weight.
Latanoprostene bunod ophthalmic solution (LBN, 0.024%) and latanoprost eye drops (0.005%) were used as positive controls and dosed with the same volumes into the right eyes of the tested animals in groups 1 and 2 once.
Compound 18 was instilled into the right eyes of the tested animals in groups 3 (10 mg/mL) and 4 (20 mg/mL) at 50 μL per eye once.
All left eyes of the tested animals in each group were dosed with vehicle solution at 50 μL per eye.
The intraocular pressures (IOPs) were measured once at pre-dose and then once at 1, 2, 4, 6, 8, and 10 hours post dose for each group of animals. FIGS. 1 to 4 show the results from the IOP lowering studies for all four tested groups.
Phase 1: To confirm the IOP lowering effect of test article at different concentrations in ocular normotensive rabbits. Compound 18 was instilled into right eyes of animals in groups 3 and 4, 50 μL/eye, once. 0.024% latanoprostene bunod ophthalmic solution (LBN) and 0.005% latanoprost eye drops were served as positive control and be dosed with same volume into right eyes of groups 1 and 2 animals once. All left eyes of animals in each group were dosed with vehicle once, 50 μL/eye. IOPs was measured once at pre-dose and once at 1, 2, 4, 6, 8, 10 hours post dose. […]
(§1) Delivery Method: Drawed 50 μL of the articles with a pipette, pulled out the lower eyelid of the animal, dropped the article into the conjunctiva sac, and gently closed the upper and lower eyelids for a few times.
(§2) Species/Strain: New Zealand White Rabbits (Oryctolagus cuniculus). The New Zealand White Rabbit was used in this study. This is commonly used specie for non-clinical studies of ophthalmic formulations, for which there is a large historical database, and the relative large cornea size is suitable for topical operations.
(§3) Restrained the animal, made the testing eye perpendicular to the probe of the TonoVet tonometer, measured the IOP for at least three times until the values are stable. The mean of the last three stable values were calculated as the final IOP value.
IOP Measurement in Ocular Normotensive Rabbits: IOP was measured at pre-dose and once at 1, 2, 4, 6, 8, 10 hours post dose in study phase 1.

[2] = test system: intraocular pressure (IOP) of ocular hypertensive rabbits; assay: IOP lowering effect in ocular hypertensive rabbits (Example 9 Phase 2); format: in vivo; details: for Reduction ratio of IOP / OD IOP Mean: 50 μL/eye t.i.d.; for Reduction ratio of IOP: treated right vs vehicle left eye; for IOP compared with the vehicle treated eyes: p≤0.05; for OD IOP Mean: treated right eye, Day 10/11
Procedure: Phase 2: To confirm the IOP lowering effect of test article at different concentrations in ocular hypertensive rabbits. Modeling was induced by intracameral injection of elastic substance in both eyes, once. Then, positive control articles/test article was instilled into right eyes of animals, 50 μL/eye, once at 5-15 minutes, 3 and 6 hours post modeling, respectively. All left eyes of animals in each group were dosed with vehicle, 50 μL/eye, once at 5-15 minutes, 3 and 6 hours post modeling, respectively. IOPs was measured at pre-modeling, 1, 2, 4, 6, 8, and 10 hours post first dose.
For further analysis of the IOP reduction effect, the IOP reduction ratio was calculated using the difference between the TA/PA treated and vehicle treated eyes at each time points post first dosing. The results were tabulated below:
Animals were sedated by Ketamine (30˜50 mg/kg) and anesthetized by Xylazine (5˜10 mg/kg), intramuscularly. Disinfected the conjunctival sac by washing with 5% povidone iodine, and then washed the conjunctival sac with saline. Fixed the eyeball with forceps, then inserted needle from the temporal limbus horizontally, avoided damaging the corneal endothelial and iris. Held the syringe still and injected the Medical Sodium Hyaluronate Gel slowly into the anterior chamber, 100 μl/eye, waited for at least 10 seconds, then pulled out the needle slowly. Pressed the injection spot immediately with swab for at least 3 minutes, blocked the injection spot with one drop of tissue adhesive.
For Phase 2, 50 μL of 1% and 2% Compound 18, 0.024% latanoprostene bunod ophthalmic solution and 0.005% latanoprost eye drops were instilled into the right eyes and the same volume of Vehicle (Gel-blank) into the left eyes in Group 5 to Group 8 of Ocular Hypertensive Rabbits, 50 μL/eye, three times. The first day of dosing in phase 1 was designated as Day 1.
as §1, §2, §3
IOP Measurement in Ocular Hypertensive Rabbits: IOP was measured at pre-modeling, and once at 1, 2, 4, 6, 8, and 10 hours post first daily dose in study phase 2.

[3] = target: human PDE-5A1 (Homo sapiens, UniProt O76074); assay: Human PDE-5A1 inhibition assay (fluorescence polarization, FAM-cGMP); format: biochemical; details: read-out: IC50 (μM) PDE5A1
[4] = target: human PDE-6C (Homo sapiens, UniProt P51160); assay: Human PDE-6C inhibition assay (fluorescence polarization, FAM-cGMP); format: biochemical; details: read-out: IC50 (μM) PDE6C
human PDE-6C, sequence (P51160 whole entry): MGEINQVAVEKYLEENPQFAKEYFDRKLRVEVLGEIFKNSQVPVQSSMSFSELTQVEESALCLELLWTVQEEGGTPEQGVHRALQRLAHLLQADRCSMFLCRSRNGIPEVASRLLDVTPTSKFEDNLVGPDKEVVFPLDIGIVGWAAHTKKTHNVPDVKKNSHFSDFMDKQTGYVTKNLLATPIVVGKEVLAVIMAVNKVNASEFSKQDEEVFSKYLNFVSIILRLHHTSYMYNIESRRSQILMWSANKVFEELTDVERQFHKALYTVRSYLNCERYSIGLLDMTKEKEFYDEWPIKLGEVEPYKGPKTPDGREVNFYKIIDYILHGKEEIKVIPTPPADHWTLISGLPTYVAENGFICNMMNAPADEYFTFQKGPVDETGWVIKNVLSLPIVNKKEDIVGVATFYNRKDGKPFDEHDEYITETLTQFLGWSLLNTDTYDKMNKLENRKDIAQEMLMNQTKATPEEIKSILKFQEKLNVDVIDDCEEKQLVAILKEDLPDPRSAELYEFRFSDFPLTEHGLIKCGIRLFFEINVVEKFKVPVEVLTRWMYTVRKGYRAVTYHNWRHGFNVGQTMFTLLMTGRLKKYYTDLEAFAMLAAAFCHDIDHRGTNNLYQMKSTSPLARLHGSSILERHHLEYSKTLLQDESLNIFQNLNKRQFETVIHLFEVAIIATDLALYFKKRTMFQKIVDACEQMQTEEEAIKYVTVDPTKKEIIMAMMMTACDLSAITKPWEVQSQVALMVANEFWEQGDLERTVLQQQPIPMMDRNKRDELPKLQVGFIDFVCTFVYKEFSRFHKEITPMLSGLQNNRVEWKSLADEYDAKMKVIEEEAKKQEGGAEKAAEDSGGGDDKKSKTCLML

With `CCCc1nn(C)c2c(=O)[nH]c(-c3cc(S(=O)(=O)N4CC(CCCO[N+](=O)[O-])C4)ccc3OCC)nc12` [Compound 18, 3-(1-((4-ethoxy-3-(1-methyl-7-oxo-3-propyl-6,7-dihydro-1H-pyrazolo[4,3-d]pyrimidin-5-yl)phenyl)sulfonyl)azetidin-3-yl)propyl nitrate] the IOP after administration ([1]; Example 8, both 10 mg/mL and 20 mg/mL doses) was “significantly lower the IOP”, the “IOP compared with the vehicle treated eyes” value ([1]; Phase 1, 10 mg/mL, at 1, 2, 4 h post dosing, p≤0.05) was “significant decreased IOPs” and the “IOP compared with the vehicle treated eyes” value ([1]; Phase 1, 20 mg/mL, at 1, 2, 4, 8, 10 h post dosing (8, 10 h, p≤0.05; 1, 4 h, p≤0.01; 2 h, p≤0.001)) was “significant decreased IOPs”. The “OD IOP Mean” value ([1]; Phase 1 Group 3, 10 mg/mL (1%), 1 h post dose) was 12.50, the “OD IOP Mean” value ([1]; Phase 1 Group 3, 10 mg/mL (1%), 2 h post dose) was 13.30 and the “OD IOP Mean” value ([1]; Phase 1 Group 3, 10 mg/mL (1%), 4 h post dose) was 14.17. For the same compound, the “OD IOP Mean” value ([1]; Phase 1 Group 3, 10 mg/mL (1%), 6 h post dose) was 15.27, the “OD IOP Mean” value ([1]; Phase 1 Group 3, 10 mg/mL (1%), 8 h post dose) was 15.57 and the “OD IOP Mean” value ([1]; Phase 1 Group 3, 10 mg/mL (1%), 10 h post dose) was 16.53. For the same compound, the “OD IOP Mean” value ([1]; Phase 1 Group 4, 20 mg/mL (2%), 1 h post dose) was 11.47, the “OD IOP Mean” value ([1]; Phase 1 Group 4, 20 mg/mL (2%), 2 h post dose) was 11.93 and the “OD IOP Mean” value ([1]; Phase 1 Group 4, 20 mg/mL (2%), 4 h post dose) was 13.70. The “OD IOP Mean” value ([1]; Phase 1 Group 4, 20 mg/mL (2%), 6 h post dose) was 14.33, the “OD IOP Mean” value ([1]; Phase 1 Group 4, 20 mg/mL (2%), 8 h post dose) was 15.20 and the “OD IOP Mean” value ([1]; Phase 1 Group 4, 20 mg/mL (2%), 10 h post dose) was 15.40. For the same compound, the tolerability ([2]; Example 9, topical instillation in rabbits) was “well tolerated”, the “Reduction ratio of IOP” value ([2]; Group 7, 10 mg/mL, 1 h post first dose) was 23.36% and the “Reduction ratio of IOP” value ([2]; Group 7, 10 mg/mL, 2 h post first dose) was 35.65%. For the same compound, the “Reduction ratio of IOP” value ([2]; Group 7, 10 mg/mL, 4 h post first dose) was 21.68%, the “Reduction ratio of IOP” value ([2]; Group 7, 10 mg/mL, 6 h post first dose) was 28.06% and the “Reduction ratio of IOP” value ([2]; Group 7, 10 mg/mL, 8 h post first dose) was 23.97%. For the same compound, the “Reduction ratio of IOP” value ([2]; Group 7, 10 mg/mL, 10 h post first dose) was 21.67%, the “Reduction ratio of IOP” value ([2]; Group 8, 20 mg/mL, 1 h post first dose) was 45.31% and the “Reduction ratio of IOP” value ([2]; Group 8, 20 mg/mL, 2 h post first dose) was 34.59%. For the same compound, the “Reduction ratio of IOP” value ([2]; Group 8, 20 mg/mL, 4 h post first dose) was 26.95%, the “Reduction ratio of IOP” value ([2]; Group 8, 20 mg/mL, 6 h post first dose) was 18.04% and the “Reduction ratio of IOP” value ([2]; Group 8, 20 mg/mL, 8 h post first dose) was 10.85%. The “Reduction ratio of IOP” value ([2]; Group 8, 20 mg/mL, 10 h post first dose) was −5.73%, the “IOP compared with the vehicle treated eyes” value ([2]; Phase 2, 10 mg/mL, at 2 h post dosing) was “significant decreased IOPs” and the “IOP compared with the vehicle treated eyes” value ([2]; Phase 2, 20 mg/mL, at 1 h post dosing) was “significant decreased IOPs”. For the same compound, the “OD IOP Mean” value ([2]; Phase 2 Group 7, 10 mg/mL (1%), 1 h post first dose) was 9.19, the “OD IOP Mean” value ([2]; Phase 2 Group 7, 10 mg/mL (1%), 2 h post first dose) was 13.80 and the “OD IOP Mean” value ([2]; Phase 2 Group 7, 10 mg/mL (1%), 4 h post first dose) was 20.47. The “OD IOP Mean” value ([2]; Phase 2 Group 7, 10 mg/mL (1%), 6 h post first dose) was 21.53, the “OD IOP Mean” value ([2]; Phase 2 Group 7, 10 mg/mL (1%), 8 h post first dose) was 17.82 and the “OD IOP Mean” value ([2]; Phase 2 Group 7, 10 mg/mL (1%), 10 h post first dose) was 15.22. The “OD IOP Mean” value ([2]; Phase 2 Group 8, 20 mg/mL (2%), 1 h post first dose) was 11.74, the “OD IOP Mean” value ([2]; Phase 2 Group 8, 20 mg/mL (2%), 2 h post first dose) was 19.67 and the “OD IOP Mean” value ([2]; Phase 2 Group 8, 20 mg/mL (2%), 4 h post first dose) was 25.57. For the same compound, the “OD IOP Mean” value ([2]; Phase 2 Group 8, 20 mg/mL (2%), 6 h post first dose) was 28.93, the “OD IOP Mean” value ([2]; Phase 2 Group 8, 20 mg/mL (2%), 8 h post first dose) was 27.40 and the “OD IOP Mean” value ([2]; Phase 2 Group 8, 20 mg/mL (2%), 10 h post first dose) was 22.63.
In the case of `CCCc1nn(C)c2c(=O)[nH]c(-c3cc(S(=O)(=O)N4CC(CCCO)C4)ccc3OCC)nc12` [Compound 4, 5-(2-ethoxy-5-((3-(3-hydroxypropyl)azetidin-1-yl)sulfonyl)phenyl)-1-methyl-3-propyl-1,6-dihydro-7H-pyrazolo[4,3-d]pyrimidin-7-one], the IC50 [3] is reported as less than 0.01 µM and the IC50 [4] is reported as less than 0.01 µM.

Source: patent US20220153746A1, “NITROGEN OXIDE-DONATING PDE-5 AND/OR PDE-6 INHIBITOR COMPOUNDS, AND USES THEREOF” (ILDONG PHARMACEUTICAL CO., LTD., priority 2020, published 2022)
